Measurements reported in patent US6281356A, “Substituted pyrroles” (Hoffmann-La Roche Inc., priority 2000, dated 2001).

System: epithelial breast carcinoma cell line (MDAMB-435)
Assay: Antiproliferative activity (growth inhibition, MTT), epithelial breast carcinoma cell line MDAMB-435
Format: cell-based
Conditions: Homo sapiens, MDA-MB-435, 120 h, 5 days post drug addition, 0.1% DMSO, read-out: IC50 (growth inhibition of MDAMB-435 cells)
Description: The epithelial breast carcinoma cell line (MDAMB-435) was purchased from ATCC (American Type Cell Culture Collection) and was grown in culture medium as recommended by ATCC. For analysis of the effect of various compounds of formula I on the growth of these cells, the cells were plated at a concentration of 1500 cells/well in a 96 well tissue culture plate ("test plate"). The day after the cells were plated, the compounds to be analyzed were dissolved in 100% DMSO (dimethyl sulfoxide) to yield at 10 mM stock solution. Each compound was diluted in H2 O to 1 mM and was added to triplicate wells in the first row of a 96 well master plate containing medium to yield a final concentration of 40 μM. The compounds were then serially diluted in medium in the "master plate". The diluted compound(s) were then transferred to test plates containing cells. A row of vehicle "control cells" received DMSO. The final concentration of DMSO in each well was 0.1%. 5 days post drug addition, the plate was analyzed as described below.
MTT (3-(4-5 methyl thiazole-2-yl)-2,5-diphenyl tetrazolium bromide; thiazolyl blue) was added to each well to yield a final concentration of 1 mg/ml. The plate was then incubated at 37° C. for 21/2-3 hours. The MTT-containing medium was then removed and 50 μl of 100% ethanol was added to each well to dissolve the formazan. The absorbences were then read using an automated plate reader (Bio-tek microplate reader). IC50 s were calculated using the Reed and Munsch equation, see Am. J. Hygiene Vol. 27 pgs. 493-497,1938.

| Structure (SMILES) | IC50 |
| --- | --- |
| Cn1cc(C2=C(c3cn(C)c4cc(-n5cccn5)ccc34)C(=O)NC2=O)c2ccccc21 [Example 8d, 3(1-Methyl-1H-indol-3-yl)-4-(1-methyl-6-pyrazol-1-yl-1H-indol-3-yl)pyrrole-2,5-dione] | 30 nM |
| Cn1cc(C2=C(c3cn(C)c4cc(-n5cccn5)ccc34)C(=O)NC2=O)c2ccc(Br)cc21 [Example 8e, 3-(6-Bromo-1-methyl-1H-indol-3-yl)-4-(1-methyl-6-pyrazol-1-yl-1H-indol-3-yl)pyrrole-2,5-dione] | 25 nM |
| COc1ccc2c(C3=C(c4cn(C)c5cc(-n6ccnc6)ccc45)C(=O)NC3=O)cn(C)c2c1 [Example 9, 3-(6-Imidazol-1-yl-1-methyl-1H-indol-3-yl)-4-(6-methoxy-1-methyl-1H-indol-3-yl)-pyrrole-2,5-dione] | 60 nM |
| Cn1cc(C2=C(c3cn(C)c4cc(-n5ccnc5)ccc34)C(=O)NC2=O)c2ccc(Br)cc21 [Example 10a, 3-(6-Bromo-1-methyl-1H-indol-3-yl)-4-(6-imidazol-1-yl-1-methyl-1H-indol-3-yl)-pyrrole-2,5-dione] | 25 nM |
| Cn1cc(C2=C(c3cn(C)c4cc(-n5ccnc5)ccc34)C(=O)NC2=O)c2ccc(C#N)cc21 [Example 10b, 3-[4-(6-Imidazol-1-yl-1-methyl-1H-indol-3-yl)-2,5-dioxo-2,5-dihydro-1H-pyrrole-3-yl]-1-methyl-1H-indole-6-carbonitrile] | 30 nM |
| Cn1cc(C2=C(c3cn(C)c4cc(N5CCOCC5)ccc34)C(=O)NC2=O)c2ccccc21 [Example 11, 3-(1-Methyl-1H-indol-3-yl)-4-(1-methyl-6-morpholin-4-yl-1H-indol-3-yl)pyrrole 2,5-dione] | 20 nM |
| Cn1cc(C2=C(c3c[nH]c4ccccc34)C(=O)NC2=O)c2ccc(N3CCOCC3)cc21 [Example 12c, 3-(1H-Indol-3-yl)-4-(1-methyl-6-morpholin-4-yl-1H-indol-3-yl)pyrrole-2,5-dione] | 70 nM |
| Cn1cc(C2=C(c3c[nH]c4cc(N5CCCC5)ccc34)C(=O)NC2=O)c2ccc(F)cc21 [Example 12e, 3-(6-Fluoro-1-methyl-1H-indol-3-yl)-4-(6-pyrrolidin-1-yl-1H-indol-3-yl)pyrrole-2,5-dione] | 3 nM |
| Cn1cc(C2=C(c3c[nH]c4cc(N5CCCC5)ccc34)C(=O)NC2=O)c2ccc(Cl)cc21 [Example 12f, 3-(6-Chloro-1-methyl-1H-indol-3-yl)-4-(6-pyrrolidin-1-yl-1H-indol-3-yl)pyrrole-2,5-dione] | < 3 nM |
| Cn1cc(C2=C(c3c[nH]c4ccccc34)C(=O)NC2=O)c2ccc(N3CCCC3)cc21 [Example 12i, 3-(1H-indol-3-yl)-4-(1-methyl-6-pyrrolidin-1-yl-1H-indol-3-yl)-pyrrole-2,5-dione] | 80 nM |
| CN1CCN(c2ccc3c(C4=C(c5cn(C)c6ccccc56)C(=O)NC4=O)cn(C)c3c2)CC1 [Example 12k, 3-(1-Methyl-1H-indol-3-yl)-4-[1-methyl-6-(4-methyl-piperazin-1-yl)-1H-indol-3-yl]pyrrole-2,5-dione] | 3410 nM |
| COCn1cc(C2=C(c3cn(C)c4cc(F)ccc34)C(=O)NC2=O)c2ccc(N3CCOCC3)cc21 [Example 12m, 3-(6-Fluoro-1-methyl-1H-indol-3-yl)-4-(1-methoxymethyl-6-morpholin-4-yl-1H-indol-3-yl)pyrrole-2,5-dione] | 170 nM |
| Cn1cc(C2=C(c3c[nH]c4cc(N5CCOCC5)ccc34)C(=O)NC2=O)c2ccc(F)cc21 [Example 12n, 3-(6-Fluoro-1-methyl-1H-indol-3-yl)-4-(6-morpholin-4-yl-1H-indol-3-yl)-pyrrole-2,5-dione] | 12 nM |
| Cn1cc(C2=C(c3c[nH]c4cc(N5CCOCC5)ccc34)C(=O)NC2=O)c2ccccc21 [Example 12o, 3-(1-Methyl-1H-indol-3-yl)-4-(6-morpholin-4-yl-1H-indol-3-yl)pyrrole-2,5-dione] | 37 nM |
| Cn1cc(C2=C(c3cn(C)c4cc(C(F)(F)F)ccc34)C(=O)NC2=O)c2ccc(N3CCOCC3)cc21 [Example 14e, 3-(1-Methyl-6-morpholin-4-yl-1H-indol-3-yl)-4-(1-methyl-6-trifluoromethyl-1H-indol-3-yl)pyrrole-2,5-dione] | 50 nM |

Next, values leading:

| IC50 | Structure (SMILES) |
| --- | --- |
| 20 nM | Cn1cc(C2=C(c3cn(C)c4cc([N+](=O)[O-])ccc34)C(=O)NC2=O)c2ccc(-n3cccn3)cc21 [Example 8c, 3-(1-Methyl-6-nitro-1H-indol-3-yl)-4-(1-methyl-6-pyrazol-1-yl-1H-indol-3-yl)pyrrole-2,5-dione] |
| < 10 nM | Cn1cc(C2=C(c3cn(C)c4cc([N+](=O)[O-])ccc34)C(=O)NC2=O)c2ccc(N3CCOCC3)cc21 [Example 12a, 3-(1-Methyl-6-morpholin-4-yl-1H-indol-3-yl)-4-(1-methyl-6-nitro-1H-indol-3-yl)pyrrole-2,5-dione] |
| < 10 nM | Cc1ccc2c(C3=C(c4cn(C)c5cc(N6CCOCC6)ccc45)C(=O)NC3=O)cn(C)c2c1 [Example 12b, 3(1,6-Dimethyl-1H-indol-3-yl)-4-(1-methyl-6-morpholin-4-yl-1H-indol-3-yl)pyrrole-2,5-dione] |
| 2 nM | Cn1cc(C2=C(c3cn(C)c4cc([N+](=O)[O-])ccc34)C(=O)NC2=O)c2ccc(N3CCCC3)cc21 [Example 12d, 3-(1-Methyl-6-nitro-1H-indol-3-yl)-4-(1-methyl-6-pyrrolidin-1-yl-1H-indol-3-yl)pyrrole-2,5-dione] |
| 20 nM | COCn1cc(C2=C(c3cn(C)c4cc([N+](=O)[O-])ccc34)C(=O)NC2=O)c2ccc(N3CCCC3)cc21 [Example 12g, 3-(1-Methoxymethyl-6-pyrrolidin-1-yl-1H-indol-3-yl)-4-(1-methyl-6-nitro-1H-indol-3-yl)pyrrole-2,5-dione] |
| 2 nM | Cn1cc(C2=C(c3c[nH]c4cc(N5CCCC5)ccc34)C(=O)NC2=O)c2ccc([N+](=O)[O-])cc21 [Example 12h, 3-(1-Methyl-6-nitro-1H-indol-3-yl)-4-(6-pyrrolidin-1-yl-1H-indol-3-yl)pyrrole-2,5-dione] |
| 60 nM | Cn1cc(C2=C(c3cn(C)c4cc(N5CCCC5)ccc34)C(=O)NC2=O)c2ccccc21 [Example 12j, 3-(1-Methyl-1H-indol-3-yl)-4-(1-methyl-6-pyrrolidin-1-yl-1H-indol-3-yl)pyrrole-2,5-dione] |
| 230 nM | Cn1cc(C2=C(c3cn(C)c4cc(N5CCCCC5)ccc34)C(=O)NC2=O)c2ccccc21 [Example 12l, 3-(1-Methyl-1H-indol-3-yl)-4-(1-methyl-6-piperidin-1-yl-1H-indol-3-yl)pyrrole-2,5-dione] |
| 4 nM | Cn1cc(C2=C(c3cn(C)c4cc(N5CCOCC5)ccc34)C(=O)NC2=O)c2ccc(C#N)cc21 [Example 13, 1-Methyl-3-[4-(1-methyl-6-morpholin-4-yl-1H-indol-3-yl)-2,5-dioxo-2,5-dihydro-1H-pyrrole-3-yl]-1H-indole-6-carbonitrile] |
| 20 nM | COc1ccc2c(C3=C(c4cn(C)c5cc(N6CCOCC6)ccc45)C(=O)NC3=O)cn(C)c2c1 [Example 14a, 3-(6-Methoxy-1-methyl-1H-indol-3-yl)-4-(1-methyl-6-morpholin-4-yl-1H-indol-3-yl)pyrrole-2,5-dione] |
| 30 nM | Cn1cc(C2=C(c3cn(C)c4cc(N5CCOCC5)ccc34)C(=O)NC2=O)c2ccc(F)cc21 [Example 14b, 3-(6-Fluoro-1-methyl-1H-indol-3-yl)-4-(1-methyl-6-morpholin-4-yl-1H-indol-3-yl)pyrrole-2,5-dione] |
| 2 nM | Cn1cc(C2=C(c3cn(C)c4cc(N5CCOCC5)ccc34)C(=O)NC2=O)c2ccc(Cl)cc21 [Example 14c, 3-(6-Chloro-1-methyl-1H-indol-3-yl)-4-(1-methyl-6-morpholin-4-yl-1H-indol-3-yl)pyrrole-2,5-dione] |
| 3 nM | Cn1cc(C2=C(c3cn(C)c4cc(N5CCOCC5)ccc34)C(=O)NC2=O)c2ccc(Br)cc21 [Example 14d, 3-(6-Bromo-1-methyl-1H-indol-3-yl)-4-(1-methyl-6-morpholin-4-yl-1H-indol-3-yl)pyrrole-2,5-dione] |
| 5 nM | Cn1cc(C2=C(c3cn(C)c4cc(N5CCCC5)ccc34)C(=O)NC2=O)c2ccc(Br)cc21 [Example 14f, 3-(6-Bromo-1-methyl-1H-indol-3-yl)-4-(1-methyl-6-pyrrolidin-1-yl-1H-indol-3-yl)pyrrole-2,5-dione] |
| 40 nM | COc1ccc2c(C3=C(c4cn(C)c5cc(N6CCCC6)ccc45)C(=O)NC3=O)cn(C)c2c1 [Example 14g, 3-(6-Methoxy-1-methyl-1H-indol-3-yl)-4-(1-methyl-6-pyrrolidin-1-yl-1H-indol-3-yl)pyrrole-2,5-dione] |
| 80 nM | Cn1cc(C2=C(c3cn(C)c4cc(C(F)(F)F)ccc34)C(=O)NC2=O)c2ccc(N3CCCC3)cc21 [Example 14h, 3-(1-Methyl-6-pyrrolidin-1-yl-1H-indol-3-yl)-4-(1-methyl-6-trifuloromethyl-1H-indol-3-yl)pyrrole-2,5-dione] |
| 10 nM | Cn1cc(C2=C(c3cn(C)c4cc(N5CCCC5)ccc34)C(=O)NC2=O)c2ccc(Cl)cc21 [Example 14i, 3-(6-Chloro-1-methyl-1H-indol-3-yl)-4-(1-methyl-6-pyrrolidin-1-yl-1H-indol-3-yl)pyrrole-2,5-dione] |
